41 compounds from ChEMBL document CHEMBL1128253, “Synthesis and anti-HIV-1 activity of 4,5,6,7-tetrahydro-5-methylimidazo-[4,5,1-jk][1,4]benzodiazepin- 2(1H)-one (TlBO) derivatives. 4” (J Med Chem, 1995) can be followed below.

Each structure is given as a SMILES string.

Usually IC50 stands for the concentration at which inhibition is half-maximal. A lower IC50 goes with greater potency in that assay.

One assay deals with MT4. The assay can be described thus: Effective concentration of compound required to achieve 50% protection of MT-4 cells against the cytopathic effect of HIV-1. The format is functional, cell-based. The note with it: Homo sapiens. On the technique in general: Protection from cytopathic effect is a common read-out in antiviral testing.
The compound `CC(C)=CCN1Cc2cccc3[nH]c(=S)n(c23)C[C@@H]1C` came in with an IC50 of 0.044 µM.

Another assay deals with Human immunodeficiency virus 1. The assay can be described thus: Concentration required for 50% protection of MT-4 cells against the cytopathic effect of HIV-1. The format is functional, organism-based. As to conditions: Human immunodeficiency virus 1, MT4.
`C[C@H]1Cn2c(=O)[nH]c3ccc(N)c(c32)CN1CC1CC1` had an IC50 of 849 µM.

`C[C@H]1Cn2c(=O)[nH]c3cc(N)cc(c32)CN1CC1CC1` displayed an IC50 of 60.6 µM.

As to `CC(=O)Nc1ccc2nc(O)n3c2c1CN(CC1CC1)[C@@H](C)C3`, the IC50 is more than 796 µM.

With `COc1ccc2c3c1[nH]c(=O)n3C[C@H](C)N(CC=C(C)C)C2`, the IC50 came to 6.63 µM.

`CCc1ccc2nc(O)n3c2c1CN(CC=C(C)C)[C@@H](C)C3` gave an IC50 of more than 5.94 µM.

Turning to `CC(C)=CCN1Cc2c(C(N)=O)ccc3[nH]c(=O)n(c23)C[C@@H]1C`, the IC50 is 6.36 µM.

In turn, `C[C@H]1Cn2c(=O)[nH]c3cc(N(C)C)cc(c32)CN1CC1CC1` registered an IC50 of 6.65 µM.

For `CCC(=CCN1Cc2c(C)ncc3nc(S)n(c23)CC1C)CC` (stereo unspecified), half-maximal inhibition (IC50) required 0.243 µM.

The compound `CCC(=CCN1Cc2c(C)ncc3nc(O)n(c23)CC1C)CC` (stereo unspecified) gave an IC50 of more than 2 µM.

In turn, `CC(C)=CCN1Cc2c(I)ccc3[nH]c(=O)n(c23)C[C@@H]1C` returned an IC50 of 0.088 µM.

`CCC(=CCN1Cc2cc(C(C)(C)C)cc3nc(O)n(c23)C[C@@H]1C)CC` registered a 50% inhibitory concentration (IC50) of 0.314 µM.

`CC(C)=CCN1Cc2cc(C(F)(F)F)cc3nc(S)n(c23)C[C@@H]1C` returned an IC50 of 0.485 µM.

`C[C@H]1Cn2c(=O)[nH]c3cc([N+](=O)[O-])cc(c32)CN1CC1CC1` came in with an IC50 of 33.4 µM.

On to `CC(C)=CCN1Cc2c(C#N)ccc3nc(O)n(c23)C[C@@H]1C`, for which the IC50 was found to be 1.14 µM.

On to `CC(C)=CCN1Cc2cc(Cl)cc3[nH]c(=S)n(c23)C[C@@H]1C`, for which the IC50 came to 0.034 µM.

As to `CC(C)=CCN1Cc2cc(Cl)c(Cl)c3nc(S)n(c23)C[C@@H]1C`, the IC50 stood at 0.0255 µM.

`C#Cc1ccc2nc(O)n3c2c1CN(CC=C(C)C)[C@@H](C)C3`: half-maximal inhibition (IC50) was put at 0.438 µM.

In turn, `C[C@H]1Cn2c(=O)[nH]c3ccc(N(C)C)c(c32)CN1CC1CC1` registered an IC50 of 6.65 µM.

With `CSc1ccc2[nH]c(=S)n3c2c1CN(CC=C(C)C)[C@@H](C)C3`, it took 0.005 µM to reach half-maximal inhibition (IC50).

In the case of `CC(C)=CCN1Cc2c(I)ccc3[nH]c(=S)n(c23)C[C@@H]1C`, the IC50 was found to be 0.0474 µM. This IC50 lies about 9.5-fold higher than the previous one.

For `CC(=O)Nc1cc2c3c(c1)[nH]c(=O)n3C[C@H](C)N(CC1CC1)C2`, the IC50 was found to be 159 µM.

The compound `COc1ccc2c3c1[nH]c(=S)n3C[C@H](C)N(CC=C(C)C)C2` showed an IC50 of 4.73 µM.

`CC(C)=CCN1Cc2c(C)ncc3nc(O)n(c23)CC1C` (stereo unspecified): the IC50 is 872 µM.

`CC(C)=CCN1Cc2c(Br)ccc3nc(S)n(c23)C[C@@H]1C` had an IC50 of 0.003 µM.

Turning to `Cc1ncc2nc(O)n3c2c1CN(CC1CC1)C(C)C3` (stereo unspecified), the IC50 is 596 µM.

With `CCOc1ccc2[nH]c(=S)n3c2c1CN(CC=C(C)C)[C@@H](C)C3`, the IC50 came to 0.0959 µM.

In turn, `CC(C)=CCN1Cc2ccc(Br)c3nc(S)n(c23)C[C@@H]1C` yielded an IC50 of 1.07 µM. Against the preceding compound, the IC50 is about 11-fold higher.

Compound `COc1ccc2[nH]c(=S)n3c2c1CN(CC=C(C)C)[C@@H](C)C3` came in with an IC50 of 0.0339 µM.

With `CC(C)=CCN1Cc2c(F)ccc3nc(S)n(c23)C[C@@H]1C`, half-maximal inhibition (IC50) was put at 0.0058 µM. This IC50 lies about 5.8-fold lower than the previous one.

Take `CC(C)=CCN1Cc2c(C=O)ccc3nc(S)n(c23)C[C@@H]1C`: the IC50 was 0.188 µM.

Take `CC(C)=CCN1Cc2c(C)ccc3nc(O)n(c23)C[C@@H]1C`: the IC50 was determined as 0.989 µM.

`CC(C)=CCN1Cc2c(C#N)ccc3nc(S)n(c23)C[C@@H]1C` gave an IC50 of 0.0563 µM.

Regarding `C#Cc1ccc2nc(S)n3c2c1CN(CC=C(C)C)[C@@H](C)C3`, inhibition was half-maximal at 0.0296 µM (IC50). Against the preceding compound, the IC50 is about 1.9-fold lower.

The compound `CC(C)=CCN1Cc2c(Br)ccc3nc(O)n(c23)C[C@@H]1C` came in with an IC50 of 0.0473 µM.

As to `CC(C)=CCN1Cc2cc(F)cc3nc(S)n(c23)C[C@@H]1C`, the IC50 was found to be 0.025 µM.

`CC(C)=CCN1Cc2cc(C(F)(F)F)cc3nc(O)n(c23)C[C@@H]1C`: the midpoint of inhibition, the IC50, lay at 5.92 µM.

The compound `CC(C)=CCN1Cc2c(C)ccc3nc(S)n(c23)C[C@@H]1C` registered a half-maximal inhibitory concentration (IC50) of 0.0136 µM.

For `C[C@H]1Cn2c(=S)[nH]c3cc([N+](=O)[O-])cc(c32)CN1CC1CC1`, the IC50 was 2.45 µM.

`CC(C)=CCN1Cc2c(Cl)ccc3[nH]c(=S)n(c23)C[C@@H]1C` [TIVIRAPINE] showed a half-inhibitory concentration (IC50) of 0.0043 µM.

Turning to `Cc1cn([C@H]2C[C@H](N=[N+]=[N-])[C@@H](CO)O2)c(=O)[nH]c1=O` [ZIDOVUDINE], the IC50 was found to be 0.0041 µM. This IC50 and that of the compound before are within 1.5-fold of each other.
